From doi:10.1101/2020.07.01.182642v1 (biorxiv, 2020)
Blank lines part the entries; values can stand above or below the molecule they belong to.

Assays:
Details in all cases: binder
RIOK2 = RIOK2 (Homo sapiens, UniProt Q9BVS4)
STK25 = STK25 (Homo sapiens, UniProt O00506)
STK24 = STK24 (Homo sapiens, UniProt Q9Y6E0)
NEK2 = NEK2 (Homo sapiens, UniProt P51955)
MAPK13 = MAPK13 (Homo sapiens, UniProt O15264)
CDC42BPB = CDC42BPB (Homo sapiens, UniProt Q9Y5S2)
CDKL2 = CDKL2 (Homo sapiens, UniProt Q92772)
CDKL2, sequence (Q92772 whole entry): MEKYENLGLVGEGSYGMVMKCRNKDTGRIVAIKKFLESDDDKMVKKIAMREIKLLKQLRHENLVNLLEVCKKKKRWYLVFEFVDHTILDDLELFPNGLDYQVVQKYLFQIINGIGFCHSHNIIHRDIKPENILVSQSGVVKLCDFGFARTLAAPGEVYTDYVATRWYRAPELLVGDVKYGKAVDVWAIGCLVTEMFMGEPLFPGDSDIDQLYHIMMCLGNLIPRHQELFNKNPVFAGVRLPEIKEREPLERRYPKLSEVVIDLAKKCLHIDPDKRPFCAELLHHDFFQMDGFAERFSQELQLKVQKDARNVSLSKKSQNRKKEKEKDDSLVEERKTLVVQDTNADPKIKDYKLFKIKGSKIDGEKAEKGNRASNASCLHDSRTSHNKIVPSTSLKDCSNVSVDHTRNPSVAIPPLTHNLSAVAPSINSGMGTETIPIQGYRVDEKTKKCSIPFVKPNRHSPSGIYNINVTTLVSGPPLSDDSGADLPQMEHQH

MAP4K4 = MAP4K4 (Homo sapiens, UniProt O95819)
STK32A = STK32A (Homo sapiens, UniProt Q8WU08)
VRK1 = VRK1 (Homo sapiens, UniProt Q99986)
STK4 = STK4 (Homo sapiens, UniProt Q13043)
PRKG1 = PRKG1 (Homo sapiens, UniProt Q13976)
PRKG1, sequence (Q13976 whole entry): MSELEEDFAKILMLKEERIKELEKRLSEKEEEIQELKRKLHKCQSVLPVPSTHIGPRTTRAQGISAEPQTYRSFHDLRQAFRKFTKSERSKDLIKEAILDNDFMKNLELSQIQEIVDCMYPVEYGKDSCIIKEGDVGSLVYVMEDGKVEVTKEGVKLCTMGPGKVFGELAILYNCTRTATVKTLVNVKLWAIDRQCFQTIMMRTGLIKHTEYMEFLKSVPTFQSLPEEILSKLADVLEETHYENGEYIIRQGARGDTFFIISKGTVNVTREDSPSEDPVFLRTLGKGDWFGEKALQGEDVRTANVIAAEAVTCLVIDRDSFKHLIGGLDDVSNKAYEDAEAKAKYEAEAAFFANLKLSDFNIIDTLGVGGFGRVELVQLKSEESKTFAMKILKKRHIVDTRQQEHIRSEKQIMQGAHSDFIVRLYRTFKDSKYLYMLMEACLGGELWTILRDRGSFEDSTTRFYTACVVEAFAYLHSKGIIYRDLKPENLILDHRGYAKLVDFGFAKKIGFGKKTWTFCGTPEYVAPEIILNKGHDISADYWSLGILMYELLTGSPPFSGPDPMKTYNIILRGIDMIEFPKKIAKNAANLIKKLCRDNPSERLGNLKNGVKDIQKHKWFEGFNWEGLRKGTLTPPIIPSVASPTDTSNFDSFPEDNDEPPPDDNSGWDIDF

MAP3K5 = MAP3K5 (Homo sapiens, UniProt Q99683)
GRK1 = GRK1 (Homo sapiens, UniProt Q15835)
PKN2 = PKN2 (Homo sapiens, UniProt Q16513)
CAMK2B = CAMK2B (Homo sapiens, UniProt Q13554)
WNK3 = WNK3 (Homo sapiens, UniProt Q9BYP7)
WNK3, sequence (Q9BYP7 whole entry): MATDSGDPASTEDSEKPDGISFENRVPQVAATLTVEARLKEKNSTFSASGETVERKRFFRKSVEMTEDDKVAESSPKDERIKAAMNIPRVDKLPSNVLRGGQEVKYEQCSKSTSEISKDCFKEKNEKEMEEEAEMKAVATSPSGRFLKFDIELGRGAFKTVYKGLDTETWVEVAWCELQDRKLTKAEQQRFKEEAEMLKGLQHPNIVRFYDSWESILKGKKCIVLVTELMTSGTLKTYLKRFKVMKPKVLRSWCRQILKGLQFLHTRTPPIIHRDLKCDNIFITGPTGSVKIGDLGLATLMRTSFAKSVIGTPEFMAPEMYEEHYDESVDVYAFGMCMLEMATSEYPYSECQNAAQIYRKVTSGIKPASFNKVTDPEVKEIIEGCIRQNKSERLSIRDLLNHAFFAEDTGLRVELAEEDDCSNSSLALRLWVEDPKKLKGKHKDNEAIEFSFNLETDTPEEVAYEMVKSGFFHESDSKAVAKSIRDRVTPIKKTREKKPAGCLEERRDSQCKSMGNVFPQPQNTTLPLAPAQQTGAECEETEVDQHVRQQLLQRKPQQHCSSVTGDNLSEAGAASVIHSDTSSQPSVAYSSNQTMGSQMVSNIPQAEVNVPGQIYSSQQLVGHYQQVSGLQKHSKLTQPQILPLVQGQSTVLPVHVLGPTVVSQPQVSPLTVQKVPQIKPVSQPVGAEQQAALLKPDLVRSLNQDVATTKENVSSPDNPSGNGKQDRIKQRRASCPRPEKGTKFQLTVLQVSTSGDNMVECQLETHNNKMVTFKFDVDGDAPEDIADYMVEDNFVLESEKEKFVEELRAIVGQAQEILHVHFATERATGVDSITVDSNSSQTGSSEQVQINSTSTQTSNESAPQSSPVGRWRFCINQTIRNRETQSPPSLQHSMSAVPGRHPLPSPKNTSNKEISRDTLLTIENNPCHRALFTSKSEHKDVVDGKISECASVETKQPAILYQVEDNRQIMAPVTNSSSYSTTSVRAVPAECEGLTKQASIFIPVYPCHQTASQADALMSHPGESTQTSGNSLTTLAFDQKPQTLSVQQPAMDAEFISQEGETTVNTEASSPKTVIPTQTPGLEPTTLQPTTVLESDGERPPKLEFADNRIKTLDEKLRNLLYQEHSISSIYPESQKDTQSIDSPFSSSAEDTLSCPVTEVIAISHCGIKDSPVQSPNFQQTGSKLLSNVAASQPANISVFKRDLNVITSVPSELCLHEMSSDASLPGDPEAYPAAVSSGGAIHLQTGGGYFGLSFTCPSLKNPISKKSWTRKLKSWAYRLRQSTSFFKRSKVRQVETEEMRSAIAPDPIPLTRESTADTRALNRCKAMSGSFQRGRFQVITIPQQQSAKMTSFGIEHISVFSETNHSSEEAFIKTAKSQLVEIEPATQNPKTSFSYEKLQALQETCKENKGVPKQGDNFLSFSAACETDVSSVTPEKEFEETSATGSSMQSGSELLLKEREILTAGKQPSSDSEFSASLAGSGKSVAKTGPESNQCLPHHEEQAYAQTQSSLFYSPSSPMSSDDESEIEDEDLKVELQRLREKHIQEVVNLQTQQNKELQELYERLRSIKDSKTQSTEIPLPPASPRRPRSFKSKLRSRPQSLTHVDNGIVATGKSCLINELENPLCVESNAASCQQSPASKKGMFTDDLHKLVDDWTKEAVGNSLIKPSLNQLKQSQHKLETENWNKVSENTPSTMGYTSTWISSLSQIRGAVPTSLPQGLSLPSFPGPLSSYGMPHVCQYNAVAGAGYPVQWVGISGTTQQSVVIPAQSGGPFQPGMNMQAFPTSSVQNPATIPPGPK

CDK17 = CDK17 (Homo sapiens, UniProt Q00537)
MAP2K6 = MAP2K6 (Homo sapiens, UniProt P52564)
MAP2K6, sequence (P52564 whole entry): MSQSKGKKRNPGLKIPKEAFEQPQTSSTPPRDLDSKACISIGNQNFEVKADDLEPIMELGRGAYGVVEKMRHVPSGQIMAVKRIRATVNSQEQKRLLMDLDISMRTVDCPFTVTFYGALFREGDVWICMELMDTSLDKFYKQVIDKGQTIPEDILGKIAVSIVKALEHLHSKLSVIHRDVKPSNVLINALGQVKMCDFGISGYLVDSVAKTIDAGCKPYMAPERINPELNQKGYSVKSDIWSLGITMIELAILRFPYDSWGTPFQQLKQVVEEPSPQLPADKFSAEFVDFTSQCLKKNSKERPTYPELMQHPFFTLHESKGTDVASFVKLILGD

IKBKB = IKBKB (Homo sapiens, UniProt O14920)
RPS6KA3 = RPS6KA3 (Homo sapiens, UniProt P51812)
AKT3 = AKT3 (Homo sapiens, UniProt Q9Y243)
PRKD3 = PRKD3 (Homo sapiens, UniProt O94806)
BMP2K = BMP2K (Homo sapiens, UniProt Q9NSY1)
PRKAA2 = PRKAA2 (Homo sapiens, UniProt P54646)
ACVR2B = ACVR2B (Homo sapiens, UniProt Q13705)
BMPR1B = BMPR1B (Homo sapiens, UniProt O00238)
BMPR1B, sequence (O00238 whole entry): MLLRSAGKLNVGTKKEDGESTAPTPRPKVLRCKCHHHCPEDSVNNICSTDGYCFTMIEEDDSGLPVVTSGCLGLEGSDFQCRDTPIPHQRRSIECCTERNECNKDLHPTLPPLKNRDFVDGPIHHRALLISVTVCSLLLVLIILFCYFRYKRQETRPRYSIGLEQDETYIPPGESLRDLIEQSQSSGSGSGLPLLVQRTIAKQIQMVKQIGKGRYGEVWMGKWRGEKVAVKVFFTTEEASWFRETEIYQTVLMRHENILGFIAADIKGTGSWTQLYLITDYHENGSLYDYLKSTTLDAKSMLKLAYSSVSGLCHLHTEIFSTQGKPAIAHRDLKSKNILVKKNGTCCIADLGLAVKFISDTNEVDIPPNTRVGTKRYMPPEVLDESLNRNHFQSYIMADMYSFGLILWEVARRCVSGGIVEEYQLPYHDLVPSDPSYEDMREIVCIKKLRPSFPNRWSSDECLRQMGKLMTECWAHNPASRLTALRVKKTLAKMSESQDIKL

STK17A = STK17A (Homo sapiens, UniProt Q9UEE5)
TGFBR1 = TGFBR1 (Homo sapiens, UniProt P36897)
CLK3 (R134-T484) = CLK3 (R134-T484) (Homo sapiens, UniProt P49761, A319V)
CLK3 (R134-T484), sequence (P49761 134-484 A319V): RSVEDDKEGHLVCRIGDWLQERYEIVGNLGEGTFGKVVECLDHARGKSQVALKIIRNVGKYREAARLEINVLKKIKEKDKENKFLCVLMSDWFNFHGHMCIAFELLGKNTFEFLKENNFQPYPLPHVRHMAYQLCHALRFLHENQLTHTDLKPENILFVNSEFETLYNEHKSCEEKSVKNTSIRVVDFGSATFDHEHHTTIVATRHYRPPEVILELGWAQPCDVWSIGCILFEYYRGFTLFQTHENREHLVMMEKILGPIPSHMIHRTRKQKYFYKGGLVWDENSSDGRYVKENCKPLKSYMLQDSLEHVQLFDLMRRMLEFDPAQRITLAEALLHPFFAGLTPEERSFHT

MAPK13, sequence (O15264 whole entry): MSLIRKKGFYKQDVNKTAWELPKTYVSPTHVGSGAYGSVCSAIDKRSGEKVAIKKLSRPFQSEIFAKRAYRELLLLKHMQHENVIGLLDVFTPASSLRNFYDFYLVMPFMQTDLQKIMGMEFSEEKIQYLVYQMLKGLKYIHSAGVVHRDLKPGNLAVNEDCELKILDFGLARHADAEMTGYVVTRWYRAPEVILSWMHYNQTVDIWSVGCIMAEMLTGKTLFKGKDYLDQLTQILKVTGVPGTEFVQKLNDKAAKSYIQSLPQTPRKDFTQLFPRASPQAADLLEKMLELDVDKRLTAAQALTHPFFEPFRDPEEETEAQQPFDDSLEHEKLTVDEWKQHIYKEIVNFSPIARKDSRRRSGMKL
NEK2, sequence (P51955 whole entry): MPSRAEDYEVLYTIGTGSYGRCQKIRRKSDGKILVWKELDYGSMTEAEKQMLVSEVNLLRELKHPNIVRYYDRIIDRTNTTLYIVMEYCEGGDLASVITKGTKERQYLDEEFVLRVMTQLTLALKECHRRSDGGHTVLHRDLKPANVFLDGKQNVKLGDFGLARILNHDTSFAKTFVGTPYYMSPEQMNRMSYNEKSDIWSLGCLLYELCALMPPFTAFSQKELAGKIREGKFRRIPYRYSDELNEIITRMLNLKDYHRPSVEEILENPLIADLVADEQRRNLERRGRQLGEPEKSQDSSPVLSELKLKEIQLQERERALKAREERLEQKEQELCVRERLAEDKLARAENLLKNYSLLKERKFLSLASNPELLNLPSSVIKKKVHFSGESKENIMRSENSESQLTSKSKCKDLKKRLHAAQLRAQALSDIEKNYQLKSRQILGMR

ΔTm inhibitor 2 (RIOK2): -0.2 °C | ΔTm inhibitor 2 (STK25): 0.7 °C | ΔTm inhibitor 2 (STK24): -0.2 °C | ΔTm inhibitor 2 (NEK2): 0.8 °C | ΔTm inhibitor 2 (MAPK13): 0.4 °C | ΔTm inhibitor 2 (CDC42BPB): 0.3 °C | ΔTm inhibitor 2 (CDKL2): -0.5 °C | ΔTm inhibitor 2 (MAP4K4): -0.1 °C | ΔTm inhibitor 2 (STK32A): -0.2 °C | ΔTm inhibitor 2 (VRK1): 1.1 °C | ΔTm inhibitor 2 (STK4): 0.7 °C | ΔTm inhibitor 2 (PRKG1): 1.6 °C | ΔTm inhibitor 2 (MAP3K5): 0.4 °C | ΔTm inhibitor 2 (GRK1): 0.4 °C | ΔTm inhibitor 2 (PKN2): -0.5 °C | ΔTm inhibitor 2 (CAMK2B): 0.3 °C | ΔTm inhibitor 2 (WNK3): -0.3 °C | ΔTm inhibitor 2 (CDK17): 0.0 °C | ΔTm inhibitor 2 (MAP2K6): 0.0 °C | ΔTm inhibitor 2 (IKBKB): 0.1 °C | ΔTm inhibitor 2 (RPS6KA3): 0.7 °C | ΔTm inhibitor 2 (AKT3): 0.0 °C | ΔTm inhibitor 2 (PRKD3): 2.7 °C | ΔTm inhibitor 2 (BMP2K): 0.2 °C | ΔTm inhibitor 2 (PRKAA2): -0.1 °C
Structure (SMILES): CCN1/C(=C/C(C)=O)Sc2ccc(OC)cc21 [compound 2, TG003]

ΔTm inhibitor 4 (STK24): 0.8 °C | ΔTm inhibitor 4 (NEK2): 0.1 °C | ΔTm inhibitor 4 (MAPK13): 0.5 °C | ΔTm inhibitor 4 (CDC42BPB): 0.2 °C | ΔTm inhibitor 4 (CDKL2): 0.1 °C | ΔTm inhibitor 4 (MAP4K4): 0.2 °C | ΔTm inhibitor 4 (STK32A): 0.2 °C | ΔTm inhibitor 4 (PRKG1): 0.5 °C | ΔTm inhibitor 4 (ACVR2B): 0.0 °C | ΔTm inhibitor 4 (BMPR1B): 0.2 °C | ΔTm inhibitor 4 (STK17A): 2.2 °C | ΔTm inhibitor 4 (CDK17): 0.4 °C | ΔTm inhibitor 4 (TGFBR1): 0.9 °C | ΔTm inhibitor 4 (IKBKB): 1.5 °C | ΔTm A319V CLK3 (CLK3 (R134-T484)): 0.6 °C
Structure (SMILES): Nc1nccc(-c2ccc3noc(-c4ccc(Cl)cc4)c3c2)n1 [compound 4, K00972]

ΔTm inhibitor 1 (RIOK2): 0.3 °C | ΔTm inhibitor 1 (STK25): 0.5 °C | ΔTm inhibitor 1 (VRK1): 0.7 °C | ΔTm inhibitor 1 (STK4): 2.6 °C | ΔTm inhibitor 1 (MAP3K5): 2.2 °C | ΔTm inhibitor 1 (ACVR2B): 7.4 °C | ΔTm inhibitor 1 (GRK1): 1.1 °C | ΔTm inhibitor 1 (BMPR1B): 11.5 °C | ΔTm inhibitor 1 (PKN2): 3.7 °C | ΔTm inhibitor 1 (CAMK2B): 0.2 °C | ΔTm inhibitor 1 (WNK3): 0.0 °C | ΔTm inhibitor 1 (STK17A): 3.4 °C | ΔTm inhibitor 1 (TGFBR1): 9.5 °C | ΔTm inhibitor 1 (MAP2K6): 1.1 °C | ΔTm inhibitor 1 (RPS6KA3): 3.4 °C | ΔTm inhibitor 1 (AKT3): 0.4 °C | ΔTm inhibitor 1 (PRKD3): 0.8 °C | ΔTm inhibitor 1 (BMP2K): 10.7 °C | ΔTm inhibitor 1 (PRKAA2): 1.1 °C | ΔTm A319V CLK3 (CLK3 (R134-T484)): 5.8 °C
Structure (SMILES): CC(=O)c1cccc(-c2cnc3ccc(NCC4CC4)nn23)c1 [compound 1, K00135]
